Experimental data published in patent publication US20090111786A1, “Compounds that Prevent Macrophage Apoptosis and Uses Thereof” (priority 2004, published 2009).

How the values were obtained:
[1] = test system: bone marrow-derived macrophages (BMDMs); assay: Macrophage apoptosis on M-CSF withdrawal, sub-G1 DNA content by flow cytometry (PI); type: cell-based, mouse; conditions: for increase in cells with sub-G1 DNA content (apoptosis-induced DNA fragmentation): BMDMs pre-incubated with agonist, then cultured without M-CSF
[2] = test system: LPS-dependent gene expression in macrophages; assay: Microarray analysis of LPS (TLR4)-induced apoptotic gene program; conditions: 9cRA alone
Method: Microarray analysis: In one embodiment, large numbers of genes were assayed for relative expression levels using one or more of an Affymetrix U74A array and a Codelink Uniset 1 mouse array. Total RNA was isolated and purified using Trizol reagent (Invitrogen Life Technologies, Carlsbad, Calif.) and RNeasy columns (Qiagen, Valencia, Calif.). cRNA was generated from 10 μg total RNA using Superscript (Invitrogen) and the High Yield RNA transcription labeling kit (Enzo Biochem. Inc., Farmingdale, N.Y.). Duplicate samples of fragmented cRNA were hybridized to Affymetrix U74A arrays or Codelink Uniset 1 mouse arrays according to manufacture's instruction. Data was analyzed with Microarray Suite (Affymetrix, Santa Clara, Calif.) and Genespring software (Silicongenetics, Redwood City, Calif.).
An additional series of microarray experiments was performed to evaluate the influence of LXR activation on regulation of the apoptotic program induced by engagement of TLR4 (FIG. 4). Macrophages were incubated with GW3965 or vehicle for 16 h and then treated with LPS for 6 hours.
Macrophages were incubated with the LXR agonist GW3965 (1 μM) or vehicle for 16 h prior to treatment with LPS (100 ng/ml) for 6 h. Total RNA was subjected to microarray analysis using Codelink Mouse Uniset 1 microarrays.

[3] = test system: macrophages; assay: Cycloheximide-induced general caspase activity, fluorimetric; type: cell-based, mouse; conditions: macrophages treated with CHX 10 μg/ml, 5 h
[4] = test system: WT and LXR−/− macrophages; assay: Cycloheximide-induced macrophage apoptosis, DNA fragmentation; type: cell-based, mouse; conditions: for apoptotic process induced by CHX (DNA fragmentation): preincubation 24 h
[5] = test system: AIM (Apoptosis Inhibitor expressed by Macrophages) mRNA; assay: AIM mRNA expression by Northern blotting; conditions: differentiated macrophages; T1317: at 12 to 24 h of stimulation; EC 10 μM

| SMILES | increase in cells with sub-G1 DNA content (apoptosis-induced DNA fragmentation) [1] | AIM mRNA levels [5] | further results |
| --- | --- | --- | --- |
| CC1=C(/C=C/C(C)=C\C=C\C(C)=C\C(=O)O)C(C)(C)CCC1 [9cRA, 9-cis retinoic acid] | little effect | – | effect on the action of the LXR-specific agonists on sub-G1 content ([1]; 9cRA combined with T1317, GW3965 or EC, M-CSF withdrawal): markedly enhanced; inhibitory activity on LPS-dependent gene expression [2]: very little inhibitory activity |
| C[C@@H]1C[C@@H]([C@H](O)CC2CC(=O)NC(=O)C2)C(=O)[C@@H](C)C1 [CHX, cycloheximide] | – | – | caspase activation [3]: increased; DNA fragmentation ([4]; macrophages treated with CHX 10 μg/ml, 6 h): increased |
| C[C@H](CC[C@@H]1OC1(C)C)[C@H]1CC[C@H]2[C@@H]3CC=C4C[C@@H](O)CC[C@]4(C)[C@H]3CC[C@]12C [EC, 24(S),25-epoxycholesterol] | attenuated | induced | – |
| O=C(O)Cc1cccc(OCCCN(Cc2cccc(C(F)(F)F)c2Cl)CC(c2ccccc2)c2ccccc2)c1 [GW3965] | attenuated | – | – |
| O=S(=O)(c1ccccc1)N(CC(F)(F)F)c1ccc(C(O)(C(F)(F)F)C(F)(F)F)cc1 [T1317] | attenuated | highly induced | apoptotic process induced by CHX (DNA fragmentation) ([4]; LXR-deficient macrophages): not; apoptotic process induced by CHX (DNA fragmentation) ([4]; […]): attenuated |
